Data reported in patent publication US6407081B1, “Method for inhibiting cytokine production by cells” (Previsan AG, priority 1997, dated 2002).

Experiments:
[1] = test system: TNF-α; assay: TNF-α production by purified CD4 T lymphocytes stimulated by PMA + anti-CD28 (Example 4); type: cell-based, human; conditions: for TNF-α in % relative to control: purified CD4 T lymphocytes, PMA + anti-CD28, 5 donors
Experimental: Purified CD4 T lymphocytes (90% purity) stimulated by PMA (phorbol myristate acetate)+anti-CD28 antibodies from healthy donors are treated with various concentrations of ADA.
(§1) In Examples 3 and 4, the results are stated as a percentage taking the medium without ADA as 100%. The concentrations corresponding to 100% are respectively 90,000 pg/ml for IL-2, 1100 pg/ml for IL-5, 1900 pg/ml for IFN-γ and 2870 pg/ml for TNF-α. The results are the mean of independent ELISA assays.

[2] = test system: IL-5; assay: IL-5 production by PHA-activated PBMC, ELISA (Example 1); type: cell-based, human; conditions: for production of IL-5 inhibited, on average: average of five donors, PBMC; for IL-5 content as a percentage of the control: PHA-activated PBMC, 72 h
Experimental: (§2) Peripheral mononuclear blood cells (PMBC) from five healthy human donors are isolated in the conventional manner from 50 ml of their blood and then purified by density gradient centrifugation (Lymphoprep). The cells (5.10^6 cells/ml) are activated by 0.3 μg/ml of phytohaemagglutinin (PHA) and cultured for 72 hours at 37° C. in the presence of various concentrations of ADA (20, 10, 5, 1, 0.2 and 0.04 μg/ml). The culture medium consists of RPMI 1640 complemented with 10% foetal calf serum and glutamine and contains mercaptoethanol. The ADA solutions are prepared in dimethyl sulfoxide (DMSO), the working concentration of DMSO during the experiments being 0.1%. Said experiments are performed on 96 well plates (200 μl/well) and, once the plates have been centrifuged at 1500 revolutions per minute for 10 minutes, the supernatants are harvested and the IL-5 content thereof analysed by an ELISA immunoenzymatic assay.

[3] = test system: interferon-γ; assay: Interferon-γ production by PHA-activated PBMC (Example 2); type: cell-based, human; conditions: for Interferon-γ content as a percentage of the control: PHA-activated PBMC, 72 h
Experimental: as §2
Starting from the same cell cultures as those used in Example 1, the presence of interferon-γ was investigated after treatment with the stated concentrations of ADA.

[4] = test system: skin allograft; assay: Skin allograft rejection (Example 6); type: in vivo, C57BL/6 mice; conditions: ADA 50 mg/kg daily injection vs carrier control; FIG. 3
Experimental: Skin grafts, which are well known to be highly dependent upon T cells, are prepared from the tails of four female C57BL/6. CH-2^bm12 mice (Jackson Laboratory, Bar Harbor, Me., USA). These grafts are grafted onto the sides of C57BL/6 mice (Harlan, Zeist, Netherlands). A dressing is applied around the hole. This dressing is removed 10 days later and the grafts are inspected daily. The test mice receive a daily intraparenteral injection of 50 mg/kg bodyweight of ADA and the controls receive an equivalent quantity of the corresponding carrier until acute rejection is observed.
On the graph in FIG. 3, survival of the skin graft is plotted, in %, on the y-axis, while the number of days since the transplant is plotted on the x-axis.

[5] = test system: IL-2; assay: IL-2 production by purified T lymphocytes (Example 3); type: cell-based, human; conditions: mean of 2 donors
Experimental: (§3) PBMC from three healthy donors are purified by density gradient […] (LymphoPrep). The T lymphocytes are obtained from 15.10^6 PBMC incubated for 20 to 30 minutes in a waterbath at 37° C. with 0.8 ml of a mixture of LymphoKwik® (One Lambda, Inc., CA, USA). This latter substance is a mixture of complement and specific antibody for antigen units of the cell membrane which lyses the unwanted cells (B lymphocytes, monocytes, etc.). The cells are centrifuged and then washed twice.
(§4) These cultures are treated with various concentrations of ADA.
as §1

[6] = test system: IL-5; assay: IL-5 production by purified T lymphocytes (Example 3); type: cell-based, human; conditions: mean of 2 donors
Experimental: as §3, §4, §1

For `NC(=O)N=NC(N)=O` [ADA, azodicarbon-amide], the “production of TNF-α” value ([1]; 20 μg/ml of ADA, donors of Example 4) was “inhibited”, the “TNF-α in % relative to control” value ([1]; ADA 1 μg/ml) was 90 % relative to control and the “TNF-α in % relative to control” value ([1]; ADA 5 μg/ml) was 48 % relative to control. For the same compound, the “TNF-α in % relative to control” value ([1]; ADA 10 μg/ml) was 32 % relative to control, the “TNF-α in % relative to control” value ([1]; ADA 20 μg/ml) was 14 % relative to control and the “production of IL-5 inhibited, on average” value ([2]; 0.2 μg/ml of ADA) was 45%. For the same compound, the “production of IL-5 inhibited, on average” value ([2]; 10 μg/ml of ADA) was 80%, the “production of IL-5 inhibited, on average” value ([2]; 20 μg/ml of ADA) was 90% and the “IL-5 content as a percentage of the control” value (shortened to “IL-5 content as a percentage”) ([2]; ADA 0.04 μg/ml, Donor 1) was 83 % of control. For the same compound, the “IL-5 content as a percentage” value ([2]; ADA 0.04 μg/ml, Donor 2) was 50 % of control, the “IL-5 content as a percentage” value ([2]; ADA 0.04 μg/ml, Donor 3) was 58 % of control and the “IL-5 content as a percentage” value ([2]; ADA 0.04 μg/ml, Donor 4) was 46 % of control. The “IL-5 content as a percentage” value ([2]; ADA 0.04 μg/ml, Donor 5) was 55 % of control, the “IL-5 content as a percentage” value ([2]; ADA 0.04 μg/ml, Mean of donors) was 58 % of control and the “IL-5 content as a percentage” value ([2]; ADA 0.2 μg/ml, Donor 1) was 54 % of control. The “IL-5 content as a percentage” value ([2]; ADA 0.2 μg/ml, Donor 2) was 42 % of control, the “IL-5 content as a percentage” value ([2]; ADA 0.2 μg/ml, Donor 3) was 63 % of control and the “IL-5 content as a percentage” value ([2]; ADA 0.2 μg/ml, Donor 4) was 57 % of control. The “IL-5 content as a percentage” value ([2]; ADA 0.2 μg/ml, Donor 5) was 58 % of control, the “IL-5 content as a percentage” value ([2]; ADA 0.2 μg/ml, Mean of donors) was 55 % of control and the “IL-5 content as a percentage” value ([2]; ADA 1 μg/ml, Donor 1) was 48 % of control. The “IL-5 content as a percentage” value ([2]; ADA 1 μg/ml, Donor 2) was 29 % of control, the “IL-5 content as a percentage” value ([2]; ADA 1 μg/ml, Donor 3) was 57 % of control and the “IL-5 content as a percentage” value ([2]; ADA 1 μg/ml, Donor 4) was 37 % of control. The “IL-5 content as a percentage” value ([2]; ADA 1 μg/ml, Donor 5) was 49 % of control, the “IL-5 content as a percentage” value ([2]; ADA 1 μg/ml, Mean of donors) was 44 % of control and the “IL-5 content as a percentage” value ([2]; ADA 5 μg/ml, Donor 1) was 44 % of control. The “IL-5 content as a percentage” value ([2]; ADA 5 μg/ml, Donor 2) was 2 % of control, the “IL-5 content as a percentage” value ([2]; ADA 5 μg/ml, Donor 3) was 23 % of control and the “IL-5 content as a percentage” value ([2]; ADA 5 μg/ml, Donor 4) was 31 % of control. The “IL-5 content as a percentage” value ([2]; ADA 5 μg/ml, Donor 5) was 34 % of control, the “IL-5 content as a percentage” value ([2]; ADA 5 μg/ml, Mean of donors) was 27 % of control and the “IL-5 content as a percentage” value ([2]; ADA 10 μg/ml, Donor 1) was 29 % of control. For the same compound, the “IL-5 content as a percentage” value ([2]; ADA 10 μg/ml, Donor 2) was 2 % of control, the “IL-5 content as a percentage” value ([2]; ADA 10 μg/ml, Donor 3) was 28 % of control and the “IL-5 content as a percentage” value ([2]; ADA 10 μg/ml, Donor 4) was 14 % of control. For the same compound, the “IL-5 content as a percentage” value ([2]; ADA 10 μg/ml, Donor 5) was 31 % of control, the “IL-5 content as a percentage” value ([2]; ADA 10 μg/ml, Mean of donors) was 21 % of control and the “IL-5 content as a percentage” value ([2]; ADA 20 μg/ml, Donor 1) was 9 % of control. For the same compound, the “IL-5 content as a percentage” value ([2]; ADA 20 μg/ml, Donor 2) was 2 % of control, the “IL-5 content as a percentage” value ([2]; ADA 20 μg/ml, Donor 3) was 26 % of control and the “IL-5 content as a percentage” value ([2]; ADA 20 μg/ml, Donor 4) was 5 % of control. For the same compound, the “IL-5 content as a percentage” value ([2]; ADA 20 μg/ml, Donor 5) was 7 % of control, the “IL-5 content as a percentage” value ([2]; ADA 20 μg/ml, Mean of donors) was 10 % of control and the “IL-5 production, comparable tests in the absence of mercaptoethanol” value ([2]; culture medium without mercaptoethanol, compared with Table 1) was “relatively similar results”. For the same compound, the “Interferon-γ content as a percentage of the control” value ([3]; ADA 0.04 μg/ml, Donor 1) was 62 % of control, the “Interferon-γ content as a percentage of the control” value ([3]; ADA 0.04 μg/ml, Donor 2) was 53 % of control and the “Interferon-γ content as a percentage of the control” value ([3]; ADA 0.04 μg/ml, Donor 3) was 99 % of control. For the same compound, the “Interferon-γ content as a percentage of the control” value ([3]; ADA 0.04 μg/ml, Donor 4) was 82 % of control, the “Interferon-γ content as a percentage of the control” value ([3]; ADA 0.04 μg/ml, Donor 5) was 38 % of control and the “Interferon-γ content as a percentage of the control” value ([3]; ADA 0.04 μg/ml, Mean of donors) was 67 % of control. The “Interferon-γ content as a percentage of the control” value ([3]; ADA 0.2 μg/ml, Donor 1) was 112 % of control, the “Interferon-γ content as a percentage of the control” value ([3]; ADA 0.2 μg/ml, Donor 2) was 111 % of control and the “Interferon-γ content as a percentage of the control” value ([3]; ADA 0.2 μg/ml, Donor 3) was 70 % of control. The “Interferon-γ content as a percentage of the control” value ([3]; ADA 0.2 μg/ml, Mean of donors (donors 4, 5 not given)) was 98 % of control, the “Interferon-γ content as a percentage of the control” value ([3]; ADA 1 μg/ml, Donor 1) was 87 % of control and the “Interferon-γ content as a percentage of the control” value ([3]; ADA 1 μg/ml, Donor 2) was 98 % of control. For the same compound, the “Interferon-γ content as a percentage of the control” value ([3]; ADA 1 μg/ml, Donor 3) was 49 % of control, the “Interferon-γ content as a percentage of the control” value ([3]; ADA 1 μg/ml, Mean of donors (donors 4, 5 not given)) was 78 % of control and the “Interferon-γ content as a percentage of the control” value ([3]; ADA 5 μg/ml, Donor 1) was 68 % of control. The “Interferon-γ content as a percentage of the control” value ([3]; ADA 5 μg/ml, Donor 2) was 128 % of control, the “Interferon-γ content as a percentage of the control” value ([3]; ADA 5 μg/ml, Donor 3) was 62 % of control and the “Interferon-γ content as a percentage of the control” value ([3]; ADA 5 μg/ml, Donor 4) was 57 % of control. The “Interferon-γ content as a percentage of the control” value ([3]; ADA 5 μg/ml, Donor 5) was 25 % of control, the “Interferon-γ content as a percentage of the control” value ([3]; ADA 5 μg/ml, Mean of donors) was 68 % of control and the “Interferon-γ content as a percentage of the control” value ([3]; ADA 10 μg/ml, Donor 1) was 23 % of control. The “Interferon-γ content as a percentage of the control” value ([3]; ADA 10 μg/ml, Donor 2) was 169 % of control, the “Interferon-γ content as a percentage of the control” value ([3]; ADA 10 μg/ml, Donor 3) was 43 % of control and the “Interferon-γ content as a percentage of the control” value ([3]; ADA 10 μg/ml, Mean of donors (donors 4, 5 not given)) was 78 % of control. For the same compound, the “Interferon-γ content as a percentage of the control” value ([3]; ADA 20 μg/ml, Donor 1) was 21 % of control, the “Interferon-γ content as a percentage of the control” value ([3]; ADA 20 μg/ml, Donor 2) was 86 % of control and the “Interferon-γ content as a percentage of the control” value ([3]; ADA 20 μg/ml, Donor 3) was 40 % of control. For the same compound, the “Interferon-γ content as a percentage of the control” value ([3]; ADA 20 μg/ml, Donor 4) was 25 % of control, the “Interferon-γ content as a percentage of the control” value ([3]; ADA 20 μg/ml, Donor 5) was 16 % of control and the “Interferon-γ content as a percentage of the control” value ([3]; ADA 20 μg/ml, Mean of donors) was 38 % of control. The “inhibition of interferon-γ production, number of donors” value ([3]; PBMC of 5 donors, ADA 0.04-20 μg/ml) was “inhibition is observed in 4 out of 5 donors”, the “rejection of the skin allograft” value [4] was “significantly delayed” and the “IL-2 in % relative to control” value ([5]; ADA 1 μg/ml) was 68 % relative to control. For the same compound, the “IL-2 in % relative to control” value ([5]; ADA 5 μg/ml) was 27 % relative to control, the “IL-2 in % relative to control” value ([5]; ADA 10 μg/ml) was 9 % relative to control and the “IL-2 in % relative to control” value ([5]; ADA 20 μg/ml) was 3 % relative to control. For the same compound, the “IL-5 in % relative to control” value ([6]; ADA 1 μg/ml) was 67 % relative to control, the “IL-5 in % relative to control” value ([6]; ADA 5 μg/ml) was 60 % relative to control and the “IL-5 in % relative to control” value ([6]; ADA 10 μg/ml) was 40 % relative to control. For the same compound, the “IL-5 in % relative to control” value ([6]; ADA 20 μg/ml) was 16 % relative to control.
